Like-named read-outs stand apart in the source and are kept apart here.
What was measured:
glucagon receptor (GCGR) = target: T1, glucagon receptor (GCGR) (Homo sapiens, UniProt P47871); assay: I125-glucagon binding assay (competition, GCGR membrane fractions)
T1 construct: expressed in transfected cells; host or cells: CHO-K1 cells overexpressing GCGR (membrane fractions)
Procedure: I^125-Glucagon Binding Assay
The binding affinity of each compound was evaluated by a competition assay with I^125-glucagon. GCGR membrane fractions were obtained from GCGR overexpressed CHO-K1 cells as a stock of 1 mg/ml concentration. To evaluate the IC50 of compounds binding to GCGR, GCGR membrane fractions were treated with compounds with a serial dilution. The membrane fractions were diluted to 7.5 microgram per well in 70 microliter assay buffer contained 50 mM Tris pH 7.4 and 0.5% (w/v) bovine serum albumin and added into 96 wells plate. The membrane fractions were then mixed with 10 microliter diluted compounds. After 5 minutes pre-incubation, 20 microliter I^125 labeled glucagon (Perkin Elmer) was added into each well at the final concentration of 0.0625 nM. The assay mixtures were incubated at 25° C. for 30 minutes and then transferred onto the Millipore MultiScreen GF/B Plate coated with 0.5% (w/v) Polyethyleneimine. The filter plate was washed with wash buffer contained 50 mM Tris pH 7.4 for 2 times, 300 microliter each time. The residual isotope was detected by Hidex CHAMELEON V micro-beta counter and the IC50 value of each compound binding to GCGR was calculated with non-linear regression.

[1] = target: T2, glucagon receptor (GCGR) overexpressed CHO-K1 cells or human primary hepatocytes (Homo sapiens, UniProt P47871); assay: Glucagon cAMP inhibition assay (Cisbio cAMP Dynamic 2 HTRF); assay type: cell-based
T2 construct: expressed in transfected cells; host or cells: GCGR overexpressed CHO-K1 cells or human primary hepatocytes (endogenous receptor)
T2 sequence (P47871 26-477): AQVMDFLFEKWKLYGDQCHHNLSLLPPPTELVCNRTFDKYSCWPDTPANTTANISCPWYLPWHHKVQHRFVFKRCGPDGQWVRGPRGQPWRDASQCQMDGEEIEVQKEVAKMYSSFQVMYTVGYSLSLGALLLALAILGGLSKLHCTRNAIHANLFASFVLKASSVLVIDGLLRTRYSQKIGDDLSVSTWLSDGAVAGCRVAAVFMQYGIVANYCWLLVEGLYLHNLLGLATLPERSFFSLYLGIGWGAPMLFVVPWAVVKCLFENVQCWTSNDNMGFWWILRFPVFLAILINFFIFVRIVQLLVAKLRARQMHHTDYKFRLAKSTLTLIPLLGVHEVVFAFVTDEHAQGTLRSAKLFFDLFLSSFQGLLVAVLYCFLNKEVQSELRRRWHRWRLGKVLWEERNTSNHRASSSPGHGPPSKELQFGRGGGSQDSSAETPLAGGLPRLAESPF
Procedure: Glucagon cAMP Inhibition Assay
Downstream secondary messenger cAMP induced by glucagon was detected by Cisbio cAMP Dynamic 2 kit. Testing compounds were each prepared as a dimethyl sulfoxide (DMSO) solution at the concentration of 10 mM. To evaluate the potency of compounds in inhibiting the cAMP production, glucagon receptor (GCGR) overexpressed CHO-K1 cells or human primary hepatocytes were treated with compounds with a serial dilution. The cells were re-suspended in Hank's Balanced Salt solution (HBSS) contained 0.1% (w/v) bovine serum albumin and 800 nM 3-isobutyl-1-methylxanthine (IBMX) and seeded into low volume, 384 wells white plate. The diluted compounds were then added into the plate for 30 minutes pre-incubation where the final DMSO concentration was 1%. The cells were stimulated with glucagon at the concentration equaled to EC50 (an indicium of the concentration of a drug that gives half-maximal response) for 30 minutes at room temperature. After incubation, lysis buffer contain cAMP antibody and fluorescence acceptor were added into each well for additional 60 minutes incubation. Results were recorded by Molecular Devices SpectraMax Paradigm with the HTRF Detection Cartridges and the IC50 value of each compound in inhibiting the cAMP production was calculated with non-linear regression based on the amount of cAMP production.

[2] = competition with I125-glucagon 0.0625 nM, membrane fractions of GCGR overexpressed CHO-K1 cells
[3] = inhibition of glucagon (EC50 concentration) induced cAMP production

T1 sequence (P47871 26-477): as above

## CC(C)[C@@H](COc1ccc(-c2ccc(Cl)cc2Cl)cn1)Nc1ccc(C(=O)NCCC(=O)O)cn1 [Compound 16-1, (S)-3-(6-((1-((5-(2,4-dichlorophenyl)pyridin-2-yl)oxy)-3-methylbutan-2-yl)amino)nicotinamido)propanoic Acid]
Glucagon receptor (GCGR); [2]
  IC50: 0.215 µM
[1]; [3]
  IC50 cAMP: 357.2 nM

## CCCC[C@@H](COc1ccc(-c2cc3ccccc3o2)c(F)c1)Nc1ccc(C(=O)NCCC(=O)O)cc1 [Compound 8-13, (S)-3-(4-((1-(4-(benzofuran-2-yl)-3-fluorophenoxy)hexan-2-yl)amino)benzamido) propanoic Acid]
Glucagon receptor (GCGR); [2]
  IC50: 0.044 µM
[1]; [3]
  IC50 cAMP: 84 nM

## CC[C@H](C)[C@@H](COc1ccc(-c2nnc(-c3ccccc3)o2)c(OC)c1)Nc1ccc(C(=O)NCCC(=O)O)cc1 [Compound 13-12, 3-(4-(((2S,3S)-1-(3-methoxy-4-(5-phenyl-1,3,4-oxadiazol-2-yl)phenoxy)-3-methylpentan-2-yl)amino)benzamido)propanoic Acid]
Glucagon receptor (GCGR); [2]
  IC50: 0.608 µM
[1]; [3]
  IC50 cAMP: 23347 nM

## CCOC(=O)CCNC(=O)c1ccc(N[C@H](Cc2ccccc2)C(=O)Nc2ccc(C(F)(F)F)cc2)cc1 [Compound 24-3, Ethyl (R)-3-(4-((1-oxo-3-phenyl-1-((4-(trifluoromethyl)phenyl)amino)propan-2-yl)amino)benzamido)propanoate]
Glucagon receptor (GCGR); uM
  IC50: > 10 µM
[1]
  IC50 cAMP: 208 nM

## CC(C)COC[C@H](Cc1ccc(-c2cccc(OC(F)(F)F)c2)cc1)Nc1ccc(C(=O)NCCC(=O)O)cc1 [Compound 19-30, (S)-3-(4-((1-isobutoxy-3-(3′-(trifluoromethoxy)-[1,1′-biphenyl]-4-yl)propan-2-yl)amino)benzamido)propanoic Acid]
Glucagon receptor (GCGR)
  IC50: 0.548 µM
[1]
  IC50 cAMP: 1104 nM

## CC[C@H](C)[C@@H](COc1ccc(-c2ccc(C(F)(F)F)cc2F)cn1)Nc1ccc(C(=O)NCCC(=O)O)cc1 [Compound 15-14, 3-(4-(((2S,3S)-1-((5-(2-fluoro-4-(trifluoromethyl)phenyl)pyridin-2-yl)oxy)-3-methylpentan-2-yl)amino)benzamido)propanoic Acid]
Glucagon receptor (GCGR)
  IC50: 0.379 µM
[1]
  IC50 cAMP: 280.6 nM

## CCOC(=O)CCNC(=O)c1ccc(N[C@@H](Cc2ccccc2)C(=O)Nc2ccc(-c3cc4ccccc4o3)cc2)cc1 [Compound 23-7, Ethyl (S)-3-(4-((1-((4-(benzofuran-2-yl)phenyl)amino)-1-oxo-3-phenylpropan-2-yl)amino)benzamido)propanoate]
Glucagon receptor (GCGR)
  IC50: 4.27 µM
[1]
  IC50 cAMP: 64.3 nM

## CC(C)[C@@H](COc1ccc(-c2nc3ccccc3s2)cn1)Nc1ccc(C(=O)NCCC(=O)O)cc1 [Compound 15-37, (S)-3-(4-((1-((5-(benzo[d]thiazol-2-yl)pyridin-2-yl)oxy)-3-methylbutan-2-yl)amino)benzamido)propanoic Acid]
Glucagon receptor (GCGR)
  IC50: 0.468 µM
[1]
  IC50 cAMP: 1609 nM

## O=C(O)CCNC(=O)c1ccc(N[C@@H](Cc2cccc3ccccc23)C(=O)Nc2ccc(-c3cc4ccccc4o3)cc2)cc1 [Compound 23-16]
Glucagon receptor (GCGR)
  IC50: 3.01 µM
[1]
  IC50 cAMP: 1193 nM

## CC[C@H](C)[C@@H](COc1ccc(-c2cc3ccccc3o2)cc1)Nc1ccc(C(=O)NCCC(=O)O)cc1 [Compound 1-4, 3-(4-(((2S,3S)-1-(4-(benzofuran-2-yl)phenoxy)-3-methylpentan-2-yl)amino)benzamido)propanoic Acid]
Glucagon receptor (GCGR); [2]
  IC50: 0.184 µM
[1]; [3]
  IC50 cAMP: 528 nM

## CC[C@H](C)[C@@H](COc1ccc(-c2cc3ccccc3o2)c(C)n1)Nc1ccc(C(=O)NCCC(=O)O)cc1 [Compound 18-4, 3-(4-(((2S,3S)-1-((5-(benzofuran-2-yl)-6-methylpyridin-2-yl)oxy)-3-methylpentan-2-yl)amino)benzamido)propanoic Acid]
Glucagon receptor (GCGR)
  IC50: 0.203 µM
[1]
  IC50 cAMP: 151 nM

## CC(C)[C@@H](COc1ccc(-c2ccc(C(F)(F)F)cc2)cn1)Nc1ccc(C(=O)NC[C@@H](O)C(=O)O)cc1 [Compound 15-8, (R)-2-hydroxy-3-(4-(((S)-3-methyl-1-((5-(4-(trifluoromethyl)phenyl)pyridin-2-yl)oxy)butan-2-yl)amino)benzamido)propanoic Acid]
Glucagon receptor (GCGR)
  IC50: 3.3 µM
[1]
  IC50 cAMP: >30000 nM

## CC(C)(C)c1ccc(-c2nnc([C@H](Cc3ccc(-c4cc5ccccc5o4)cc3)Nc3ccc(C(=O)NCCC(=O)O)cc3)o2)cc1 [Compound 20-1, (S)-3-(4-((2-(4-(benzofuran-2-yl)phenyl)-1-(5-(4-(tert-butyl)phenyl)-1,3,4-oxadiazol-2-yl)ethyl)amino)benzamido)propanoic Acid]
Glucagon receptor (GCGR)
  IC50: 0.201 µM
[1]
  IC50 cAMP: 1403 nM

## CCCC[C@@H](COc1ccc(-c2ccc(C(F)(F)F)cc2Cl)cc1)Nc1ccc(C(=O)NCc2nnn[nH]2)cc1 [Compound 1-20, (S)—N-((1H-tetrazol-5-yl)methyl)-4-((1-((2′-chloro-4′-(trifluoromethyl)-[1,1′-biphenyl]-4-yl)oxy)hexan-2-yl)amino)benzamide]
Glucagon receptor (GCGR); [2]
  IC50: 0.096 µM
[1]; [3]
  IC50 cAMP: 524 nM

## CC(C)C[C@@H](COc1ccc(-c2ccc(C(F)(F)F)cc2)nn1)Nc1ccc(C(=O)NCCC(=O)O)cc1 [Compound 17-7, (S)-3-(4-((4-methyl-1-((6-(4-(trifluoromethyl)phenyl)pyridazin-3-yl)oxy)pentan-2-yl)amino)benzamido)propanoic Acid]
Glucagon receptor (GCGR); [2]
  IC50: 1.32 µM
[1]; [3]
  IC50 cAMP: 7647 nM

## CC(C)[C@@H](Cc1noc(-c2ccc(C(C)(C)C)cc2)n1)Nc1ccc(C(=O)NCCC(=O)O)cc1 [Compound 21-3, (R)-3-(4-((1-(5-(4-(tert-butyl)phenyl)-1,2,4-oxadiazol-3-yl)-3-methylbutan-2-yl)amino)benzamido)propanoic Acid]
Glucagon receptor (GCGR); [2]
  IC50: 1.13 µM
[1]; [3]
  IC50 cAMP: 5436 nM

## CC(C)C[C@@H](COc1cc(F)c(-c2ccc(C(F)(F)F)cc2F)c(F)c1)Nc1ccc(C(=O)NCCC(=O)O)cc1 [Compound 7-7, (S)-3-(4-((4-methyl-1-((2,2′,6-trifluoro-4′-(trifluoromethyl)-[1,1′-biphenyl]-4-yl)oxy)pentan-2-yl)amino)benzamido)propanoic Acid]
Glucagon receptor (GCGR); [2]
  IC50: 0.307 µM
[1]; [3]
  IC50 cAMP: 689 nM

## COc1cc(OC[C@@H](Nc2ccc(C(=O)NCCC(=O)O)cc2)C(C)C)ccc1-c1ccc(C(F)(F)F)cc1Cl [Compound 13-6, (S)-3-(4-((1-((2′-chloro-2-methoxy-4′-(trifluoromethyl)-[1,1′-biphenyl]-4-yl)oxy)-3-methylbutan-2-yl)amino)benzamido)propanoic Acid]
Glucagon receptor (GCGR); [2]
  IC50: 0.089 µM
[1]; [3]
  IC50 cAMP: 97 nM

## CC(C)[C@@H](COc1ccc(-c2ccc(C(F)(F)F)cc2Cl)cc1)Nc1ccc(C(=O)NCCC(=O)O)cc1 [Compound 1-22, (S)-3-(4-((1-((2′-chloro-4′-(trifluoromethyl)-[1,1′-biphenyl]-4-yl)oxy)-3-methylbutan-2-yl)amino)benzamido)propanoic Acid]
Glucagon receptor (GCGR); [2]
  IC50: 0.07 µM
[1]; [3]
  IC50 cAMP: 14.2 nM

## CC(C)[C@@H](COc1ccc(-c2cc3ccccc3o2)cc1)Nc1ccc(C(=O)NCCC(=O)O)cc1 [Compound 1-2, (S)-3-(4-((1-(4-(benzofuran-2-yl)phenoxy)-3-methylbutan-2-yl)amino)benzamido)propanoic Acid]
Glucagon receptor (GCGR); [2]
  IC50: 0.207 µM
[1]; [3]
  IC50 cAMP: 195.6 nM

## CCCC[C@@H](COc1ccc(-c2ccc(Cl)cc2Cl)c(Cl)c1)Nc1ccc(C(=O)NCc2nnn[nH]2)cc1 [Compound 3-13, (S)—N-((1H-tetrazol-5-yl)methyl)-4-((1-((2,2′,4′-trichloro-[1,1′-biphenyl]-4-yl)oxy)hexan-2-yl)amino)benzamide]
Glucagon receptor (GCGR); [2]
  IC50: 0.092 µM
[1]; [3]
  IC50 cAMP: 279.9 nM

## CC(C)[C@@H](COc1nnc(-c2ccc(OC(F)(F)F)cc2)o1)Nc1ccc(C(=O)NCCC(=O)O)cc1 [Compound 22-15, (S)-3-(4-((3-methyl-1-((5-(4-(trifluoromethoxy)phenyl)-1,3,4-oxadiazol-2-yl)oxy)butan-2-yl)amino)benzamido)propanoic Acid]
Glucagon receptor (GCGR)
  IC50: > 30 µM
[1]
  IC50 cAMP: >30000 nM

## CCOC(=O)CCNC(=O)c1ccc(N[C@H](COc2ccc(-c3nc4ccccc4s3)cn2)C(C)C)cc1 [Compound 15-36, Ethyl (S)-3-(4-((1-((5-(benzo[d]thiazol-2-yl)pyridin-2-yl)oxy)-3-methylbutan-2-yl)amino)benzamido)propanoate]
Glucagon receptor (GCGR); uM
  IC50: > 30 µM
[1]
  IC50 cAMP: 1973 nM

From patent US11384060B2, “Amide compounds and use thereof” (ALPHALA CO., LTD., priority 2017, dated 2022)
